According to patent publication US20240261249A1, “NOVEL SQUARAMIDE DERIVATIVE AND USE THEREOF” (PUSAN NATIONAL UNIVERSITY INDUSTRY-UNIVERSITY COOPERATION …, priority 2021, published 2024):

Columns and labels:
Phospho-eIF2α (Ser51) = Phospho-eIF2α (Ser51) Sandwich ELISA in K562 cells; format: cell-based; conditions: serum-free RPMI, 10 μM compound; for activity at 10 µM: Homo sapiens, K562, 6 h, control = 1, read-out: eIF2α phosphorylation, absorbance standardized to control (DMSO-treated) set to 1, at 10 μM
Experimental: Pathscan Phospho-eIF2α (Ser51) Sandwich ELISA Kit #7286 from Cell signaling was used. The K562 cell line was cultured in serum-free RPMI medium at 37° C. in the presence of 5% CO2. Cells were treated with test compounds at a concentration of 10 μM. Six hours after compound treatment, the cells were lysed with a lysis buffer included in the kit to obtain 50 μg of protein by quantification. Afterwards, ELISA assay was performed according to the manufacturer's protocol to obtain absorbance. The absorbance for each obtained compound was standardized to a value of which the control (DMSO-treated) is set to 1.

K562 cell line = experiment: CCK-8 anti-proliferative assay, K562; format: cell-based; conditions: Homo sapiens, 72 h; K562, culture for 3 days, CCK-8, Table 2; read-out: IC50
Experimental: CCK-8 assay (cell counting kit-8 assay, Dojindo, Kumamoto, Japan) was performed. The K562 cell line was cultured in RPMI medium supplemented with 10% FBS and 1% ABAM at 37° C. in the presence of 5% CO2. Cells were treated with test compounds at concentrations of 0 μM, 1.25 μM, 2.5 μM, 5 μM, 10 μM, and 20 μM, respectively. After culture for 3 days, 10 μL of CCK-8 solution was treated and cultured for 4 hours. Subsequently, the absorbance was measured at 450 nm to obtain the IC50 value of each compound.
The experimental values for the K562 cell line are identical to biological Example 2.

| Compound | activity at 10 µM (Phospho-eIF2α (Ser51)) [%] | IC50 (K562 cell line) [µM] | eIF2α phosphorylation, absorbance standardized to control (DMSO-treated) set to 1, at 10 μM (Phospho-eIF2α (Ser51); 6 hours, control = 1) |
| --- | --- | --- | --- |
| N#Cc1ccc(O[C@H]2CC[C@H](Nc3c(Nc4ccccc4C(F)(F)F)c(=O)c3=O)CC2)cc1 [Compound 71, 4-(((1,4-trans)-4-((3,4-Dioxo-2-((2-(trifluoromethyl)phenyl)amino)cyclobut-1-en-1-yl)amino)cyclohexyl)oxy)benzonitrile] | 180 | > 20 |  |
| N#Cc1ccc(O[C@H]2CC[C@H](Nc3c(Nc4cccc(Cl)c4)c(=O)c3=O)CC2)cc1 [Compound 19, 4-(((1,4-trans)-4-((2-((3-Chlorophenyl)amino)-3,4-dioxocyclobut-1-en-1-yl)amino)cyclohexyl)oxy)benzonitrile] | 111 | > 20 |  |
| O=c1c(Nc2ccccc2C(F)(F)F)c(N[C@H]2CC[C@H](Oc3ccc(C(F)(F)F)cc3)CC2)c1=O [Compound 70, 3-(((1,4-trans)-4-(4-(Trifluoromethyl)phenoxy)cyclohexyl)amino)-4-((2-(trifluoromethyl)phenyl)amino)cyclobut-3-ene-1,2-dione] | 194 | > 20 |  |
| O=c1c(Nc2ccccc2C(F)(F)F)c(N[C@H]2CC[C@H](Oc3ccc([N+](=O)[O-])cc3)CC2)c1=O [Compound 72, 3-(((1,4-trans)-4-(4-Nitrophenoxy)cyclohexyl)amino)-4-((2-(trifluoromethyl)phenyl)amino)cyclobut-3-ene-1,2-dione] | 149 | > 20 |  |
| CS(=O)(=O)c1ccc(O[C@H]2CC[C@H](Nc3c(Nc4cccc(C(F)(F)F)c4)c(=O)c3=O)CC2)cc1 [Compound 26, 3-(((1,4-trans)-4-(4-(Methylsulfonyl)phenoxy)cyclohexyl)amino)-4-((3-(trifluoromethyl)phenyl)amino)cyclobut-3-ene-1,2-dione] | 133 | > 20 |  |
| COc1cccc(Nc2c(N[C@H]3CC[C@H](Oc4ccc([N+](=O)[O-])cc4)CC3)c(=O)c2=O)c1 [Compound 35, 3-((3-Methoxyphenyl)amino)-4-(((1,4-trans)-4-(4-nitrophenoxy)cyclohexyl)amino)cyclobut-3-ene-1,2-dione] | 105 | > 20 |  |
| N#Cc1ccc(O[C@H]2CC[C@H](Nc3c(Nc4cccc(F)c4)c(=O)c3=O)CC2)cc1 [Compound 14, 4-(((1,4-trans)-4-((2-((3-Fluorophenyl)amino)-3,4-dioxocyclobut-1-en-1-yl)amino)cyclohexyl)oxy)benzonitrile] | 90 |  |  |
| CS(=O)(=O)c1ccc(O[C@H]2CC[C@H](Nc3c(Nc4ccccc4)c(=O)c3=O)CC2)cc1 [Compound 11, 3-(((1,4-trans)-4-(4-(Methylsulfonyl)phenoxy)cyclohexyl)amino)-4-(phenylamino)cyclobut-3-ene-1,2-dione] | 94 |  |  |
| CC(C)(C)c1ccc(Nc2c(N[C@H]3CC[C@H](Oc4ccc(S(C)(=O)=O)cc4)CC3)c(=O)c2=O)cc1 [Compound 53, 3-((4-(tert-Butyl)phenyl)amino)-4-(((1,4-trans)-4-(4-(methylsulfonyl)phenoxy)cyclohexyl)amino)cyclobut-3-ene-1,2-dione] | 133 |  |  |
| NS(=O)(=O)c1ccc(O[C@H]2CC[C@H](Nc3c(Nc4ccccc4)c(=O)c3=O)CC2)cc1 [Compound 12, 4-(((1,4-trans)-4-((3,4-Dioxo-2-(phenylamino)cyclobut-1-en-1-yl)amino)cyclohexyl)oxy)benzenesulfonamide] | 81 |  |  |
| O=c1c(Nc2cccc(Cl)c2)c(N[C@H]2CC[C@H](Oc3ccc(C(F)(F)F)cc3)CC2)c1=O [Compound 18, 3-((3-Chlorophenyl)amino)-4-(((1,4-trans)-4-(4-(trifluoromethyl)phenoxy)cyclohexyl)amino)cyclobut-3-ene-1,2-dione] | 71 |  |  |
| COc1ccc(Nc2c(N[C@H]3CC[C@H](Oc4ccc(C(F)(F)F)cc4)CC3)c(=O)c2=O)cc1 [Compound 54, 3-((4-Methoxyphenyl)amino)-4-(((1,4-trans)-4-(4-(trifluoromethyl)phenoxy)cyclohexyl)amino)cyclobut-3-ene-1,2-dione] | 182 |  |  |
| COc1ccc(Nc2c(N[C@H]3CC[C@H](Oc4ccc([N+](=O)[O-])cc4)CC3)c(=O)c2=O)cc1 [Compound 56, 3-((4-Methoxyphenyl)amino)-4-(((1,4-trans)-4-(4-nitrophenoxy)cyclohexyl)amino)cyclobut-3-ene-1,2-dione] | 227 |  |  |
| CC(C)(C)c1ccccc1Nc1c(N[C@H]2CC[C@H](Oc3ccc(C#N)cc3)CC2)c(=O)c1=O [Compound 75, 4-(((1,4-trans)-4-((2-((2-(tert-Butyl)phenyl)amino)-3,4-dioxocyclobut-1-en-1-yl)amino)cyclohexyl)oxy)benzonitrile] | 162 |  |  |
| COc1ccccc1Nc1c(N[C@H]2CC[C@H](Oc3ccc(S(N)(=O)=O)cc3)CC2)c(=O)c1=O [Compound 82, 4-(((1,4-trans)-4-((2-((2-Methoxyphenyl)amino)-3,4-dioxocyclobut-1-en-1-yl)amino)cyclohexyl)oxy)benzenesulfonamide] | 136 |  |  |
| CS(=O)(=O)c1ccc(O[C@H]2CC[C@H](Nc3c(Nc4ccc(C(F)(F)F)cc4)c(=O)c3=O)CC2)cc1 [Compound 49, 3-(((1,4-trans)-4-(4-(Methylsulfonyl)phenoxy)cyclohexyl)amino)-4-((4-(trifluoromethyl)phenyl)amino)cyclobut-3-ene-1,2-dione] | 102 | > 20 |  |
| O=c1c(Nc2ccccc2F)c(N[C@H]2CC[C@H](Oc3ccc(C(F)(F)F)cc3)CC2)c1=O [Compound 62, 3-((2-Fluorophenyl)amino)-4-(((1,4-trans)-4-(4-(trifluoromethyl)phenoxy)cyclohexyl)amino)cyclobut-3-ene-1,2-dione] | 182 |  |  |
| COc1ccccc1Nc1c(N[C@H]2CC[C@H](Oc3ccc(S(C)(=O)=O)cc3)CC2)c(=O)c1=O [Compound 81, 3-((2-Methoxyphenyl)amino)-4-(((1,4-trans)-4-(4-(methylsulfonyl)phenoxy)cyclohexyl)amino)cyclobut-3-ene-1,2-dione] | 152 |  |  |
| N#Cc1ccc(O[C@H]2CC[C@H](Nc3c(Nc4ccc(C(F)(F)F)cc4)c(=O)c3=O)CC2)cc1 [Compound 47, 4-(((1,4-trans)-4-((3,4-Dioxo-2-((4-(trifluoromethyl)phenyl)amino)cyclobut-1-en-1-yl)amino)cyclohexyl)oxy)benzonitrile] | 51 |  |  |
| COc1ccccc1Nc1c(N[C@H]2CC[C@H](Oc3ccc([N+](=O)[O-])cc3)CC2)c(=O)c1=O [Compound 80, 3-((2-Methoxyphenyl)amino)-4-(((1,4-trans)-4-(4-nitrophenoxy)cyclohexyl)amino)cyclobut-3-ene-1,2-dione] | 133 |  |  |
| N#Cc1ccc(O[C@H]2CC[C@H](Nc3c(Nc4ccccc4)c(=O)c3=O)CC2)cc1 [Compound 9, 4-(((1,4-trans)-4-((3,4-Dioxo-2-(phenylamino)cyclobut-1-en-1-yl)amino)cyclohexyl)oxy)benzonitrile] | 88 |  |  |
| CS(=O)(=O)c1ccc(O[C@H]2CC[C@H](Nc3c(Nc4ccccc4F)c(=O)c3=O)CC2)cc1 [Compound 65, 3-((2-Fluorophenyl)amino)-4-(((1,4-trans)-4-(4-(methylsulfonyl)phenoxy)cyclohexyl)amino)cyclobut-3-ene-1,2-dione] |  |  | 1.07 |
| O=c1c(Nc2ccc(C(F)(F)F)cc2)c(N[C@H]2CC[C@H](Oc3ccc([N+](=O)[O-])cc3)CC2)c1=O [Compound 48, 3-(((1,4-trans)-4-(4-Nitrophenoxy)cyclohexyl)amino)-4-((4-(trifluoromethyl)phenyl)amino)cyclobut-3-ene-1,2-dione] | 91 |  |  |
| COc1cccc(Nc2c(N[C@H]3CC[C@H](Oc4ccc(S(N)(=O)=O)cc4)CC3)c(=O)c2=O)c1 [Compound 37, 4-(((1,4-trans)-4-((2-((3-Methoxyphenyl)amino)-3,4-dioxocyclobut-1-en-1-yl)amino)cyclohexyl)oxy)benzenesulfonamide] | 67 |  |  |
| COc1ccccc1Nc1c(N[C@H]2CC[C@H](Oc3ccc(C#N)cc3)CC2)c(=O)c1=O [Compound 79, 4-(((1,4-trans)-4-((2-((2-Methoxyphenyl)amino)-3,4-dioxocyclobut-1-en-1-yl)amino)cyclohexyl)oxy)benzonitrile] | 238 |  |  |
| NS(=O)(=O)c1ccc(O[C@H]2CC[C@H](Nc3c(Nc4cccc(Cl)c4)c(=O)c3=O)CC2)cc1 [Compound 22, 4-(((1,4-trans)-4-((2-((3-Chlorophenyl)amino)-3,4-dioxocyclobut-1-en-1-yl)amino)cyclohexyl)oxy)benzenesulfonamide] | 219 |  |  |
| O=c1c(Nc2ccc(F)cc2)c(N[C@H]2CC[C@H](Oc3ccc(C(F)(F)F)cc3)CC2)c1=O [Compound 38, 3-((4-Fluorophenyl)amino)-4-(((1,4-trans)-4-(4-(trifluoromethyl)phenoxy)cyclohexyl)amino)cyclobut-3-ene-1,2-dione] | 65 |  |  |
